Measured values reported in patent EP0853084B1, “Substituted purine derivatives as vitronectin receptor antagonists” (HOECHST AKTIENGESELLSCHAFT, priority 1996, dated 1998).

Biological target: humanen Vitronectinrezeptor (VnR) αvβ3 (Homo sapiens, UniProt P05106+P06756)
Assay: Inhibition of binding of Kistrin to human vitronectin receptor (αvβ3 ELISA test, K/VnR)
Details: 10 µM test compound, read-out: K/VnR Inhibierung bei 10 µM (in %)
Excerpt: Als Testmethode, nach der beispielsweise die antagonistische Wirkung der erfindungsgemäßen Verbindungen auf den Vitronectinrezeptor αvβ3 bestimmt werden kann, wird nachfolgend die Inhibierung der Bindung von Kistrin an humanen Vitronectinrezeptor (VnR) beschrieben (αvβ3-ELISA-Test; die Testmethode wird bei der Auflistung der Testergebnisse mit "K/VnR" abgekürzt).
Kistrin wird nach den Methoden von Dennis et al., wie in Proc. Natl. Acad. Sci. USA 1989, 87, 2471-2475 und PROTEINS: Structure, Function and Genetics 1993, 15, 312-321, beschrieben, gereinigt.
Humaner Vitronectinrezeptor wird aus der menschlichen Plazenta nach der Methode von Pytela et al., Methods Enzymol. 1987, 14.4, 475 gewonnen. Humaner Vitronectinrezeptor αvβ3 kann auch aus einigen Zellinien (zum Beispiel aus 293 Zellen, einer humanen embryonalen Nierenzellinie), die mit DNA Sequenzen für beide Untereinheiten αv und β3 des Vitronectinrezeptors co-transfziert sind, gewonnen werden. Die Untereinheiten wurden mit Octylglycosid extrahiert und anschließend über Concanavalin A, Heparin-Sepharose und S-300 chromatographiert.
Murine monoklonale Antikörper, spezifisch für die β3 Untereinheit des Vitronectinrezeptors, werden nach der Methode von Newman et al., Blood, 1985, 227-232, oder nach einem ähnlichen Verfahren hergestellt. Das Kaninchen Fab 2 anti-Maus Fc Konjugat an Meerrettich-Peroxidase (anti-Maus Fc HRP) wurde von Pel Freeze (Katalog Nr. 715 305-1) bezogen.
Die Fähigkeit von Substanzen die Bindung von Kistrin an den Vitronectinrezeptor zu inhibieren, kann mit einem ELISA-Test ermittelt werden. Zu diesem Zweck werden Nunc 96 well-Mikrotiterplatten mit einer Lösung von Kistrin (0.002 mg/ml) nach der Methode von Dennis et al., wie in PROTEINS: Structure, Function and Genetics 1993, 15, 312-321, beschrieben, belegt. Die Platten werden dann zweimal mit PBS/0.05 % Tween-20 gewaschen und durch Inkubieren (60 min) mit RinderserumAlbumin (BSA, 0.5 %, RIA Güteklasse oder besser) in Tris-HCl (50 mM), NaCl (100 mM), MgCl2 (1 mM), CaCl2 (1 mM), MnCl2 (1 mM), pH 7, geblockt. Man stellt Lösungen von bekannten Inhibitoren und von den Testsubstanzen in Konzentrationen von 2 x 10^-12 bis 2 x 10^-6 mol/l in Assay-Puffer (BSA (0.5 %, RIA-Güteklasse oder besser) in Tris-HCl (50 mM), NaCl (100 mM), MgCl2 (1 mM), CaCl2 (1 mM), MnCl2 (1 mM), pH 7) her. Die geblockten Platten werden entleert, und jeweils 0.025 ml dieser Lösung, die eine definierte Konzentration (2 x 10^-12 bis 2 x 10^-6 mol/l) entweder an einem bekannten Inhibitor oder an einer Testsubstanz enthält, werden in jedes well gegeben. 0.025 ml einer Lösung des Vitronectinrezeptors im Testpuffer (0.03 mg/ml) werden in jedes well der Platte pipettiert und die Platte wird auf einem Schüttler 60-180 min bei Raumtemperatur inkubiert. In der Zwischenzeit wird eine Lösung (6 ml/Platte) eines für die β3-Untereinheit des Vitronectinrezeptors spezifischen murinen monoklonalen Antikörpers im Assay-Puffer (0.0015 mg/ml) hergestellt. Zu dieser Lösung gibt man einen zweiten Kaninchen-Antikörper (0.001 ml Stammlösung/6 ml der murinen monoklonalen anti-β3-Antikörper-Lösung), der ein anti-Maus Fc HRP Antikörper Konjugat darstellt, und dieses Gemisch aus murinem anti-β3 Antikörper und Kaninchen anti-Maus Fc HRP Antikörper Konjugat läßt man während der Zeit der Rezeptor-Inhibitor-Inkubation inkubieren. Die Testplatten werden viermal mit PBS-Lösung, die 0.05 % Tween-20 enthält, gewaschen und man pipettiert jeweils 0.05 ml/well der Antikörpermischung in jedes well der Platte und inkubiert 60-180 min. Die Platte wird viermal mit PBS/0.05 % Tween-20 gewaschen und anschließend mit 0.05 ml/well einer PBS-Lösung, die 0.67 mg/ml o-Phenylendiamin und 0.012 % H2O2 enthält, entwickelt. Alternativ hierzu kann o-Phenylendiamin in einem Puffer (pH 5) eingesetzt werden, der Na3PO4 und Zitronensäure enthält. Die Farbentwicklung wird mit 1 N H2SO4 (0.05 ml/well) gestoppt. […]

Chain of humanen Vitronectinrezeptor (VnR) αvβ3 (P06756 31-889 limits assumed): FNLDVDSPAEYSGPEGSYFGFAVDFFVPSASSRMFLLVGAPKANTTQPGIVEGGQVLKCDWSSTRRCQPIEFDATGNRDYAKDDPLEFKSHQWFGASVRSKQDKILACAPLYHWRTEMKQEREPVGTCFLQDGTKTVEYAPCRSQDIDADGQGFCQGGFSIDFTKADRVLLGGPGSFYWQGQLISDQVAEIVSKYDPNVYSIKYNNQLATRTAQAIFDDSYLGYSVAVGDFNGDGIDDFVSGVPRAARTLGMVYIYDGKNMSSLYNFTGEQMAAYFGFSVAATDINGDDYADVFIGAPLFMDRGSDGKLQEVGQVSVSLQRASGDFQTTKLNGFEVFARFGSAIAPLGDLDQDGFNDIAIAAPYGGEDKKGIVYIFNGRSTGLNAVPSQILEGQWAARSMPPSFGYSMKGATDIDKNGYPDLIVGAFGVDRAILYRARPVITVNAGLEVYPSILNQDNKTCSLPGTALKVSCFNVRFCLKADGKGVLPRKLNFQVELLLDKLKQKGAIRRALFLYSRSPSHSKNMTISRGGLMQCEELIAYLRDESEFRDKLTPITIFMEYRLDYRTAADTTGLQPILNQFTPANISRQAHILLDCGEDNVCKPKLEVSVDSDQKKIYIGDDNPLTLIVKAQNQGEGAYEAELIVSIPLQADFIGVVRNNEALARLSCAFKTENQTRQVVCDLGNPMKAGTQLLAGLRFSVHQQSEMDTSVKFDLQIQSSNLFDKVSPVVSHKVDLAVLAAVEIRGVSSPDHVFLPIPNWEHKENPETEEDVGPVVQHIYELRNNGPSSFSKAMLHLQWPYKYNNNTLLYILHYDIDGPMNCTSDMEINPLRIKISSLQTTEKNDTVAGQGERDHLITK
Chain of humanen Vitronectinrezeptor (VnR) αvβ3 (P06756 891-1048 partner limits assumed): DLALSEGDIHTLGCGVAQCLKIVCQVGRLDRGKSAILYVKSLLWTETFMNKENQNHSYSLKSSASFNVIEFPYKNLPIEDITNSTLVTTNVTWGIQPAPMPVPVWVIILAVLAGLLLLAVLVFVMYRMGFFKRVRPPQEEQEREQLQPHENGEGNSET
Chain of humanen Vitronectinrezeptor (VnR) αvβ3 (P05106 27-788): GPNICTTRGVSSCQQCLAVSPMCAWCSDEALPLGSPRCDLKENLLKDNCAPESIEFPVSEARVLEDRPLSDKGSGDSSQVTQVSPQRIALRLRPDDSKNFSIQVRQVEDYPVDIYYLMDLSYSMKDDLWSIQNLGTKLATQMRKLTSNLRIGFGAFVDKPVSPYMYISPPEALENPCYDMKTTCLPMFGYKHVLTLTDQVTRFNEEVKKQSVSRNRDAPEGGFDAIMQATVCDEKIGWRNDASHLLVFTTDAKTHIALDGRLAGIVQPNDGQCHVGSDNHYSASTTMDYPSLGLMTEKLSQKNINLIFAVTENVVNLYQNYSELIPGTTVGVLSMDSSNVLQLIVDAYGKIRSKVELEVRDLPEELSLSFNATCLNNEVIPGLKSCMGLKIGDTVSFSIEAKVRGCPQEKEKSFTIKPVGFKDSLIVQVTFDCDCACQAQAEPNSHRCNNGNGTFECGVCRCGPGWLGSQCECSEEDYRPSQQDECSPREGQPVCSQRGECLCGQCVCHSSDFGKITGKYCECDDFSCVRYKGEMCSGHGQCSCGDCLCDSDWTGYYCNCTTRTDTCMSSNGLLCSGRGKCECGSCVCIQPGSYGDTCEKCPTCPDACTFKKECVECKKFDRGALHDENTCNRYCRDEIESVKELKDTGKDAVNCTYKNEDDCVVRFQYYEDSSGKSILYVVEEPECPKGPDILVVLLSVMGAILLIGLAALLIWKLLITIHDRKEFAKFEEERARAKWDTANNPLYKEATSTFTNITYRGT

N=C(N)NCCCCCNc1ncnc2c1ncn2C[C@H](NC(=O)OCc1ccccc1)C(=O)O [Beispiel 1, N^6-(1-(5-Guanidinopentyl))-N^9-(3-(2S-(benzyloxycarbonylamino)propionsäure))-adenin]
inhibition at 10 µM: 75%

N=C(N)NCCCCNc1ncnc2c1ncn2C[C@H](NC(=O)OCc1ccccc1)C(=O)O [Beispiel 2, N^6-(1-(4-Guanidinobutyl))-N^9-(3-(2S-(benzyloxycarbonylamino)propionsäure))-adenin]
inhibition at 10 µM: 80%

N=C(N)NCCCNc1ncnc2c1ncn2C[C@H](NC(=O)OCc1ccccc1)C(=O)O [Beispiel 3, N^6-(1-(3-Guanidinopropyl))-N^9-(3-(2S-(benzyloxycarbonylamino)propionsäure))-adenin]
inhibition at 10 µM: 77%

O=C(N[C@@H](Cn1cnc2c(NCCCCNC3=NCCN3)ncnc21)C(=O)O)OCc1ccccc1 [Beispiel 4, N^6-(1-(4-(4,5-Dihydro-1H-imidazol-2-ylamino)butyl))-N^9-(3-(2S-(benzyloxycarbonylamino)propionsäure))-adenin]
inhibition at 10 µM: 93%

N=C(N)NCCCn1cnc2c(NCC[C@H](NC(=O)OCc3ccccc3)C(=O)O)ncnc21 [Beispiel 12, N^6-(4-(2S-(Benzyloxycarbonylamino)buttersäure))-N^9-(1-(3-guanidinylpropyl))-adenin]
inhibition at 10 µM: 86%

O=C(N[C@@H](CCNc1ncnc2c1ncn2CCCNC1=NCCN1)C(=O)O)OCc1ccccc1 [Beispiel 13, N^6-(4-(2S-(Benzyloxycarbonylamino)buttersäure))-N^9-(1-(3-(4,5-dihydro-1H-imidazol-2-ylamino)-propyl))-adenin]
inhibition at 10 µM: 92%

N=C(N)NCCCCCn1cnc2c(NC[C@H](NC(=O)OCc3ccccc3)C(=O)O)ncnc21 [Beispiel 14, N^6-(3-(2S-(Benzyloxycarbonylamino)propionsäure))-N^9-(1-(5-guanidinylpentyl))-adenin]
inhibition at 10 µM: 84%

NCCCCCn1cnc2c(NC[C@H](NC(=O)OCc3ccccc3)C(=O)O)ncnc21 [Beispiel 14c, N^6-(3-(2S-(Benzyloxycarbonylamino)propionsäure))-N^9-(1-(5-aminopentyl))-adenin]
inhibition at 10 µM: 22%

O=C(N[C@@H](CNc1ncnc2c1ncn2CCCCCNC1=NCCN1)C(=O)O)OCc1ccccc1 [Beispiel 15, N^6-(3-(2S-(Benzyloxycarbonylamino)propionsäure))-N^9-(1-(5-(4,5-dihydro-1H-imidazol-2-ylamino)pentyl))-adenin]
inhibition at 10 µM: 92%

N=C(N)NCCCn1cnc2c(NC[C@H](NC(=O)OCc3ccccc3)C(=O)O)ncnc21 [Beispiel 16, N^6-(3-(2S-(Benzyloxycarbonylamino)propionsäure))-N^9-(1-(3-guanidinylpropyl))-adenin]
inhibition at 10 µM: 85%

NCCCn1cnc2c(NC[C@H](NC(=O)OCc3ccccc3)C(=O)O)ncnc21 [Beispiel 16b, N^6-(3-(2S-(Benzyloxycarbonylamino)propionsäure))-N^9-(1-(3-aminopropyl))-adenin]
inhibition at 10 µM: 29%

N=C(N)NCCCCn1cnc2c(NC[C@H](NC(=O)OCc3ccccc3)C(=O)O)ncnc21 [Beispiel 17, N^6-(3-(2S-(Benzyloxycarbonylamino)propionsäure))-N^9-(1-(4-guanidinylbutyl))-adenin]
inhibition at 10 µM: 92%

O=C(N[C@@H](CNc1ncnc2c1ncn2CCCCNC1=NCCN1)C(=O)O)OCc1ccccc1 [Beispiel 18]
inhibition at 10 µM: 95%

O=C(N[C@@H](Cn1cnc2c(N3CCC(C(=O)NC4=NCCCN4)CC3)ncnc21)C(=O)O)OCc1ccccc1 [Beispiel 19, 2S-Benzyloxycarbonylamino-3-(6-(4-(1,4,5,6-tetrahydropyrimidin-2-ylcarbamoyl)-piperdin-1-yl)-purin-9-yl)-propionsäure]
inhibition at 10 µM: 97%

O=C(N[C@@H](Cn1cnc2c(NCCCCNc3nc4ccccc4[nH]3)ncnc21)C(=O)O)OCc1ccccc1 [Beispiel 23, 3-(6-((4-(Benzimidazol-2-ylamino)-butyl)-amino)-purin-9-yl)-2S-benzyloxycarbonyl-amino-propionsäure]
inhibition at 10 µM: 93%

O=C(N[C@@H](Cn1cnc2c(N3CCC(CNC4=NCCN4)CC3)ncnc21)C(=O)O)OCc1ccccc1 [Beispiel 24, 2S-Benzyloxycarbonylamino-3-(6-(4-((4,5-dihydro-1H-imidazol-2-ylamino)-methyl)-piperidin-1-yl)-purin-9-yl)-propionsäure]
inhibition at 10 µM: 95%

O=C(N[C@H](Cn1cnc2c(N3CCC(CNC4=NCCN4)CC3)ncnc21)C(=O)O)OCc1ccccc1 [Beispiel 25]
inhibition at 10 µM: 89%

N=C(N)NCC1CCN(c2ncnc3c2ncn3C[C@H](NC(=O)OCc2ccccc2)C(=O)O)CC1 [Beispiel 26, 2S-Benzyloxycarbonylamino-3-(6-(4-(guanidinomethyl)-piperidin-1-yl)-purin-9-yl)-propionsäure]
inhibition at 10 µM: 91%
